Test results published in patent US6346610B1, “Process for preparing antifungal V-28-3M” (Ajinomoto Co., Ltd., priority 1997, dated 2002).
Like-named read-outs stand apart in the source and are kept apart here.

Key:
[1] = antimycotic activity of V-28-3M; settings: V-28-3M obtained by Example 5, compared with V-28-3M described in JP-A-3-81225
animal cells = settings: background statement, JP-A-63-218686 and JP-A-3-81225; cited from earlier work
[2] = background statement, JP-A-63-218686 and JP-A-3-81225; cited from earlier work

COC(=O)C1C(O)CC2(O)CC(O)CC(O)CC(O)CC(O)CC(=O)CC(O)CC(=O)OC(C(C)CCC(O)CC(=O)c3ccc(N)cc3)C(C)\C=C/C=C\C=C\C=C\C=C\C=C\C=C\C(OC3OC(C)C(O)C(N)C3O)CC1O2 (stereo not drawn) [Example V-28-3M, V-28-3M]
antimycotic activity [1]: the same result was also obtained | toxicity for animal cells (animal cells): low | antimycotic activity [2]: high
